We go through 4 compounds from patent publication US20250090705A1, “STERILIZATION METHOD AND STERILIZATION DEVICE” (OSAKA UNIVERSITY, priority 2021, published 2025).

Where two headings read alike, the source gives them in different places.

Series [1] concerns spore solution (Bacillus subtilis) on pig skin. The series is described as follows: sixth sterilization test, contaminated pig skin model, CFU assay. Type of series: cell-based. The note with it: peroxynitric acid solution 100 mM, approximately 0.3 L container, Bacillus subtilis spores. The source says:
Subsequently, the following description will discuss, with reference to FIG. 8, a result of a sterilization test using the sterilization device 1 that generates peroxynitric acid gas by a nebulizer method. In the sterilization test shown in FIG. 8, with the aim of application to biological disinfection, a contaminated pig skin model was sterilized by the nebulizer method.
FIG. 8 is a graph showing a result of a sixth sterilization test using a contaminated pig skin model. A 10^6 CFU spore solution (Bacillus subtilis) was applied to pig skin that had been shaved, cleaned, and subjected to sterilization treatment in advance, and the pig skin was dried so as to be a contaminated model. Such a contaminated pig skin model was regarded as the sterilization target 22 and housed in the sterilization container 21 having a capacity of approximately 0.3 L. In so doing, a surface of the contaminated pig skin model was made perpendicular to a direction in which a gas containing the peroxynitric acid gas and the peroxynitric acid mist flowed. A molar concentration of the peroxynitric acid solution to be placed in the second container 12 was set to 100 mM. After the sterilization test, a stomachere was used to collect bacteria on not only a front surface but also a back surface of the contaminated pig skin model, and the CFU assay was carried out.

Series [2] relates to bacterial spores (Geobacillus stearothermophilu). In words: third and fourth sterilization tests, large container (90 L), BI in sterilization bag, on-off test (turbidity of culture solution). Type of series: cell-based. To be noted: 90 L container, 10^6 CFU spores in glassine paper bag. On the procedure: (§1) The following description will discuss, with reference to FIGS. 2 to 5, results of sterilization tests each using the sterilization device 1 that generates peroxynitric acid gas by a nebulizer method. Here, the sterilization tests were carried out with use of the sterilization device 1 that includes (i) the peroxynitric acid gas generation section 10, which is as illustrated in FIG. 1 and which generates the peroxynitric acid gas by a nebulizer method and (ii) the sterilization treatment section 20 in which the sterilization container 21 having a capacity of 90 L is used. The peroxynitric acid solution was used in an amount of approximately 15 mL per minute in the peroxynitric acid gas generation section 10. The peroxynitric acid mist and the peroxynitric acid gas in the sterilization container 21 were configured to be recirculated into the second container 12 instead of being discharged outside through the air outlet 24.
FIG. 4 is a table showing a result of a third sterilization test using a large container. FIG. 5 is a table showing a result of a fourth sterilization test using a large container. The BI is one in which 10^6 CFU bacterial spores (Geobacillus stearothermophilu) are supported on a stainless steel disk and the stainless steel disk is in the sterilization bag 23 made of glassine paper. […]

The conditions of series [3]: 1 atmospheric pressure, cited from earlier work.
A short description of series [4]: half-time of peroxynitric acid solution versus temperature. Format: physicochemical. The note with it: pH 2.9. On the procedure: FIG. 10 is a graph showing half-time of a peroxynitric acid solution. As shown in the graph, the peroxynitric acid solution that has a lower temperature (which may be ambient temperature) has a longer half-time. For example, the peroxynitric acid solution that has pH of 2.9 has a half-time of 132 minutes at 2° C. of the temperature of the peroxynitric acid solution, has a half-time of 26 minutes at 10° C. of the temperature of the peroxynitric acid solution, has a half-time of 7.8 minutes at 20° C. of the temperature of the peroxynitric acid solution, has a half-time of 2 minutes at 30° C. of the temperature of the peroxynitric acid solution, and has a half-time of 0.6 minutes at 40° C. of the temperature of the peroxynitric acid solution. The half-time of the peroxynitric acid solution thus depends on temperature.

Series [5] concerns bacterial spores (Geobacillus stearothermophilu). The series is described as follows: fifth sterilization test, small container (approximately 0.3 L), BI in sterilization bag, CFU assay, survival curves, D value. Format: cell-based. The source says:
Subsequently, the following description will discuss, with reference to FIGS. 6 and 7, a result of a sterilization test using the sterilization device 1 that generates peroxynitric acid gas by a nebulizer method. The capacity of the sterilization container 21 was as large as 90 L in the sterilization tests in FIGS. 2 to 5, whereas the capacity of the sterilization container 21 was as small as approximately 0.3 L in the sterilization test in FIGS. 6 and 7. The peroxide solution was used in an amount of approximately 3 mL per minute in the peroxynitric acid gas generation section 10. The peroxynitric acid gas in the sterilization container 21 is discharged outside through the air outlet 24 instead of being recirculated into the second container 12.
FIG. 6 is a graph showing a result of a fifth sterilization test using a small container. The BI is one in which 10^5 CFU bacterial spores (Geobacillus stearothermophilu) are supported on a stainless steel disk and the stainless steel disk is in the sterilization bag 23 made of glassine paper. […]
FIG. 7 is a table showing microbicidal activity determined from each of the survival curves S10, S100, S200, S600a, and S600b that are shown in FIG. 6. […] A D value [s] is a time which is calculated from a survival curve and at which the number of living microorganisms reaches 1/10. […]

For series [6] the test system is unchanged. In words: first and second sterilization tests, large container (90 L), nebulizer method, BI in sterilization bag, CFU assay. Format: cell-based. The note with it: 90 L container, 10^5 CFU spores in glassine paper bag. How it is done: as §1
FIG. 2 is a graph showing a result of a first sterilization test using a large container. FIG. 3 is a graph showing a result of a second sterilization test using a large container. […]

The conditions of series [7]: cited from earlier work.
The conditions of series [8]: cited from earlier work. The source holds these as a separate data set.
Setting [9] is: peroxynitric acid solution 10 mM.
Setting [10] is: peroxynitric acid solution 600 mM.

For the compound “peroxynitric acid [peroxynitric acid solution]”, in series [1], the “time in which the contaminated pig skin model was sterilized” value came to 3 min. Further, the “time in which the BI was sterilized (on-off test)” value in series [2] (setting [9]) came out at 10 min; in series [2] (setting [10]), 1 min. Further, the half-time was 97 s in series [3] (4.55° C. (277.7 K)); 12 s in series [3] (24.85° C. (298 K)); 132 min in series [4] (2° C.); 26 min in series [4] (10° C.); 7.8 min in series [4] (20° C.); 2 min in series [4] (30° C.). The half-time in series [4] (40° C.) was 0.6 min. Further, the “microbicidal activity from survival curves” value in series [5] (10, 100, 200 and 600 mM, approximately 0.3 L container, 10^5 CFU spores, CFU assay) is on record as “higher molar concentration achieves higher microbicidal activity”. The “microbicidal activity 1/D (reciprocal of D value)” value in series [5] (calculated from survival curves S10, S100, S200, S600a, S600b) was “proportional to the molar concentration”. In addition, the “time in which the BI was sterilized (living microorganisms equal to or lower than detection limit)” value was found to be 3 min in series [6] (setting [9]) and 1 min in series [6] (setting [10]).

For `O=[N+]([O-])O` [Nitric acid, nitric acid], the pKa result in series [7] was “approximately −1.4”. The vapor pressure in series [8] (20° C.) is recorded as 6.4 kPa.

Consider `O=P(O)(O)O` [phosphoric acid], for which the vapor pressure in series [8] (20° C.) is listed as 4 Pa.

With `O=S(=O)(O)O` [Sulfuric acid, sulfuric acid], the vapor pressure in series [8] (25° C.) was 0.0067 Pa.
